From US20260265304A1, “PEPTIDE INHIBITORS OF FOCAL ADHESION KINASE ACTIVITY AND USES THEREOF” (Arizona Board of Regents on Behalf of the University of …, priority 2019, published 2026)
Read-outs that look alike come from different tables or passages of the source. Positions of bridges follow the written chain, without caps; N, C: chain ends. Non-standard residues stand in square brackets, D forms with d. Residues, ends and D or L forms follow the SMILES beside them. *: point of attachment. Myristoyl = CCCCCCCCCCCCCC(=O)*; R8 = C=CCCCCCC[C@@](C)(N)C(=O)O; S5 = C=CCCC[C@](C)(N)C(=O)O

What was measured:
trypsin = biological target: T1, trypsin (Bos taurus, UniProt P00760); assay: In vitro trypsin digest assay (trypsin-agarose beads, LC-MS); type: in vitro ADME; settings: trypsin-agarose beads in physiological buffer, read-out: t1/2 in trypsin digest (protease resistance) (converted)
T1 construct: purchased ThermoFisher
T1 sequence (P00760 24-246): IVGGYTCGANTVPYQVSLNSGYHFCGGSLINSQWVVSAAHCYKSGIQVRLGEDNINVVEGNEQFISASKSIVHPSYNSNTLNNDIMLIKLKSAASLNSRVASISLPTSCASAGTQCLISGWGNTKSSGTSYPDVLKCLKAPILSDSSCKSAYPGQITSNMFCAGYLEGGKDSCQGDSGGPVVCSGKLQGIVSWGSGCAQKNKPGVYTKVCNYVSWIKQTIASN
Description: Assays were performed using trypsin-agarose beads (ThermoFisher) and measurement of peptide concentration using LC-MS. Peptide half-lives were calculated using GraphPad Prism software.
Trypsin-agarose beads were used to test the potential cleavage of peptides in a physiological buffer and LC-MS was used as the analytical method to determine peptide concentration.

[1] = system: SK-MEL-103 melanoma cells; assay: 3D Matrigel-on-top proliferation assay; type: cell-based
Description: (§1) B. Competition FP experiment with 1907 showing inhibition of TAMRA-LD2 binding to FAT. C. SPR binding and selectivity analysis using WT FAT and Mutant FAT (L994E, 1936A) at the helix-protein interface. D. Flow cytometry analysis of Rhodamine-1907 (10 μM) cellular uptake in MDA-MB-453 breast cancer cells. E. Boyden-chamber invasion assays in SK-MEL-103 melanoma cells. F. 3D Matrigel-on-top proliferation assays in SK-MEL-103 melanoma cells.
B. 3D structure of negative control molecule (UACC-2020). C. 3D Matrigel-on-top cell proliferation data of stapled peptides in SK-MEL-103 melanoma cells.
A negative control myristoylated peptide (2020) was designed and synthesized based on non-active molecule 2014. Experiments were conducted to test the efficacy of these peptides in 3D proliferation assays using SK-MEL-103 melanoma cells. […] Furthermore, 2012 had no effects on the proliferation of normal HUVEC cells (IC50=NA) (FIG. 7).

[2] = system: SK-MEL-103 melanoma cells; assay: Boyden-chamber invasion assay; type: cell-based; settings: SK-MEL-103, compared to Defactinib relative to compound KD
Description: as §1
(§2) To further evaluate the activity of 1907, experiments were conducted that tested the peptide in a flow cytometry-based cell permeability assay. […] Experiments were also conducted to test the cellular efficacy in SK-MEL-103 melanoma cells.

[3] = biological target: T2, FAK FAT domain (biotinylated Avitag-FAT protein) (Homo sapiens, UniProt Q05397); assay: Surface plasmon resonance (SPR) binding to immobilised FAT protein; settings: two-site binding model
T2 construct: biotinylated Avitag-FAT protein was diluted in running buffer
T2 sequence (Q05397 914-1045 limits assumed): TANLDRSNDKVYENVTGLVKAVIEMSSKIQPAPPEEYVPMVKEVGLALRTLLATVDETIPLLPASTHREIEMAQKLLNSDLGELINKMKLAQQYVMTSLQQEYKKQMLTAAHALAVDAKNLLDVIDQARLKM

[4] = biological target: T2, FAK FAT domain (biotinylated Avitag-FAT protein); assay: as above; settings: FAT protein immobilised, peptide 200 μM-0.01 μM, 1:1 binding model; read-out: SPR KD
Description: SPR binding studies were performed on a ForteBio Pioneer FE SPR system. In brief, a SADH Streptavidin in Dextran Hydrogel biosensor (ForteBio) was docked onto the flow cell and preconditioned with two injections of 10 mM NaOH, 1 M NaCl for 1 min at 50 μL/min. […] Empty channel 2 served as the reference control. After achieving a stable baseline, a concentration series (200 μM-0.01 μM) of peptide was prepared in final running buffer (100 mM Tris-HCl, 200 mM NaCl, 0.05% Tween-20, 5% DMSO) and injected using the OneStep gradient injection method at a flow rate of 75 μL/min. […] Raw SPR data were appropriately processed in Qdat software (ForteBio) by normalizing the baseline prior to injection, aligning the channels, subtraction of the reference channel, and blank subtraction. Kinetic data were fitted to a pseudo-first order 1:1 interaction binding model using to calculate KD. In addition, a steady-state model and Req data points were used to validate the binding affinity. Visual inspection of the SPR sensograms was performed to verify appropriate model fitting, lack of mass transport effects, return to baseline, and lack of irregular kinetics.

[5] = biological target: T3, FAK FAT domain (paxillin-FAT binding) (Homo sapiens, UniProt Q05397); assay: Competition fluorescence polarization (FP) assay, inhibition of TAMRA-LD2 binding to FAT; settings: read-out: FP Ki
T3 construct: FP Buffer containing 20 μM FAT and 0.1 μM TAMRA-LD2
T3 sequence (Q05397 914-1045 limits assumed): T2 sequence (Q05397 914-1045 limits assumed)
Description: The FP assay buffer used was 20 mM Tris, 200 mM NaCl, 0.05% β-me, 0.1% Triton X-100, 5% glycerol, and 1× Halt protease inhibitor cocktail. […] Bodipy TMR FP optical module (2100-4100) was used as the mirror.
Wells with no FAT were used as a baseline value which was subtracted from the raw values to produce ΔmP values. The plate was read at every hour for four hours to test for time differences in IC50. The titration data was processed through GraphPad Prism to produce a dose response curve and a calculated IC50 with standard error (SE). A four-parameter dose-response inhibition model was utilized and the bottom fit was constrained to the lower plateau of the curve. Ki was determined from the following calculation:
P0 is the concentration of free protein and KD is calculated from the saturation curve. 150 is calculated by the following equation:
where PT is the total protein concentration, LT is the total labeled-ligand concentration, P0 is the positive root of P0^2+(KD+LT)*P0−PT, PL0=P−P0, PL50=PL0/2, L0=LT-PL0, and L50=LT-PL50.

[6] = system: MDA-MB-453 breast cancer cells; assay: Flow cytometry-based cell permeability assay; settings: MDA-MB-453 cells, 10 μM, compared to Rhodamine only control
Description: as §1, §2
Flow cytometry assays performed on the Canto II flow cytometer (BD Biosciences) were utilized to measure cellular uptake of TAMRA-tagged peptides. In brief, the instrument was properly gated using cells treated with TAMRA-only as a positive control. Also, cells treated with untagged peptide were used as a negative control to rule out non-specific signal. Cells were treated with TAMRA-tagged peptides for a duration of 2 h-48 h to measure cellular uptake. Permeability of peptide was reported as % positivity relative to TAMRA positive control and mean fluorescence intensity (MFI).

[7] = biological target: T4, biotinylated Avitag-FAT protein (UniProt Q05397 919-1052, limits assumed, biotinylated (Avitag)); assay: SPR, biotinylated Avitag-FAT immobilised
T4 construct: domain: FAT; Immobilised on a streptavidin sensor for SPR; also called WT FAT; FAT domain of FAK; not shown: Avitag
T4 sequence (looked up): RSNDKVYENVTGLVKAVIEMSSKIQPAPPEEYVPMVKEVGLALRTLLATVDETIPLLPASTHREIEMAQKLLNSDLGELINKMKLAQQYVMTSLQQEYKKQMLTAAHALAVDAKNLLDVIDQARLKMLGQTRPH
Description: SPR binding studies were performed on a ForteBio Pioneer FE SPR system. In brief, a SADH Streptavidin in Dextran Hydrogel biosensor (ForteBio) was docked onto the flow cell and preconditioned with two injections of 10 mM NaOH, 1 M NaCl for 1 min at 50 μL/min. […] Empty channel 2 served as the reference control. After achieving a stable baseline, a concentration series (200 μM-0.01 μM) of peptide was prepared in final running buffer (100 mM Tris-HCl, 200 mM NaCl, 0.05% Tween-20, 5% DMSO) and injected using the OneStep gradient injection method at a flow rate of 75 μL/min. 3% sucrose was utilized as a bulk standard control for OneStep injection and a DMSO calibration curve was performed using a concentration range of 3.5% to 6.5% DMSO. Raw SPR data were appropriately processed in Qdat software (ForteBio) by normalizing the baseline prior to injection, aligning the channels, subtraction of the reference channel, and blank subtraction. Kinetic data were fitted to a pseudo-first order 1:1 interaction binding model using to calculate KD. In addition, a steady-state model and Req data points were used to validate the binding affinity. Visual inspection of the SPR sensograms was performed to verify appropriate model fitting, lack of mass transport effects, return to baseline, and lack of irregular kinetics.

[8] = SK-MEL-103 melanoma cells, 3D Matrigel-on-top

`CC(=O)N[C@@H](CC(N)=O)C(=O)N[C@@H](CC(C)C)C(=O)N[C@@H](CO)C(=O)N[C@@H](CCC(=O)O)C(=O)N[C@@H](CC(C)C)C(=O)N[C@@H](CC(=O)O)C(=O)N[C@@H](CCCNC(=N)N)C(=O)N[C@@H](CC(C)C)C(=O)N[C@@H](CC(C)C)C(=O)N[C@@H](CC(C)C)C(=O)N[C@@H](CCC(=O)O)C(=O)N[C@@H](CC(C)C)C(=O)N[C@@H](CC(N)=O)C(N)=O` [Peptide 1967, reference compound] showed a half-life (trypsin) of 0.69 h.

`CC(=O)N[C@@H](CC(N)=O)C(=O)N[C@@H](CC(C)C)C(=O)N[C@]1(C)CCCCCC/C=C/CCC[C@@](C)(C(=O)N[C@@H](CCC(=O)O)C(=O)N[C@@H](CC(C)C)C(=O)N[C@@H](CC(N)=O)C(N)=O)NC(=O)[C@H](CC(C)C)NC(=O)[C@H](CC(C)C)NC(=O)[C@H](CCCNC(=N)N)NC(=O)[C@H](CC(=O)O)NC(=O)[C@H](CC(C)C)NC(=O)[C@H](CCC(=O)O)NC1=O` [Peptide 1907, Ac-NLR8ELDRLLS5ELN-NH2] was tested, and the “inhibition of 3D proliferation” value ([1]; SK-MEL-103, compared to Defactinib relative to compound KD) was “effectively inhibited”, the IC50 [1, 8] was 60 µM and the half-life (trypsin) was 15.7 h. For the same molecule, the inhibition of invasion [2] was “effectively inhibited”.

Work on `CC(=O)N[C@@H](CC(N)=O)C(=O)N[C@@H](CC(C)C)C(=O)N[C@]1(C)CCCCCCC=CCCC[C@@](C)(C(=O)N[C@@H](CCC(=O)O)C(=O)N[C@@H](CC(C)C)C(=O)N[C@@H](CC(N)=O)C(N)=O)NC(=O)[C@H](CC(C)C)NC(=O)[C@H](CC(C)C)NC(=O)[C@H](CCCCN)NC(=O)[C@H](CC(=O)O)NC(=O)[C@H](CC(C)C)NC(=O)[C@H](CCC(=O)O)NC1=O` [Peptide 2028, Ac-NLR8ELDKLLS5ELN-NH2] (Ac-NL[R8]ELDKLL[S5]ELN-NH2; staple 3-10) yielded a Kd ([3]; SPR KD (1), site (1)) of 1.36 µM and a Kd ([3]; read-out: SPR KD (2), site (2)) of 10.9 µM.

In the case of `CCCCCCCCCCCCCC(=O)N[C@@H](CC(N)=O)C(=O)N[C@@H](CC(C)C)C(=O)N[C@]1(C)CCCCCCC=CCCC[C@@](C)(C(=O)N[C@@H](CCC(=O)O)C(=O)N[C@@H](CCC(=O)O)C(=O)N[C@@H](CC(N)=O)C(N)=O)NC(=O)[C@H](CC(C)C)NC(=O)[C@H](CC(C)C)NC(=O)[C@H](CCCNC(=N)N)NC(=O)[C@H](CC(=O)O)NC(=O)[C@H](CCC(=O)O)NC(=O)[C@H](CCC(=O)O)NC1=O` [Peptide 2020, Myristoyl-NLR8EEDRLLS5EEN-NH2] (Myristoyl-NL[R8]EEDRLL[S5]EEN-NH2; staple 3-10), the “3D proliferation IC50” value [1, 8] is reported as “no effect”, the Kd [4] is reported as > 200 µM and the Ki [5] is reported as > 1250 µM.

For `CCN(CC)c1ccc2c(-c3ccccc3C(=O)NCCC(=O)N[C@@H](CC(N)=O)C(=O)N[C@@H](CC(C)C)C(=O)N[C@]3(C)CCCCCCC=CCCC[C@@](C)(C(=O)N[C@@H](CCC(=O)O)C(=O)N[C@@H](CC(C)C)C(=O)N[C@@H](CC(N)=O)C(N)=O)NC(=O)[C@H](CC(C)C)NC(=O)[C@H](CC(C)C)NC(=O)[C@H](CCCNC(=N)N)NC(=O)[C@H](CC(=O)O)NC(=O)[C@H](CC(C)C)NC(=O)[C@H](CCC(=O)O)NC3=O)c3ccc(=[N+](CC)CC)cc-3oc2c1` [Peptide 2016, RhoB-1907], the “cellular uptake / crossing of the cell membrane” value [6] was “successfully crossed the cell membrane”.

B1: 1920 (peptide)
peptide: Ac-SLGSNL[R8]ELDRLL[S5]ELNAVQH-NH2
modifications: staple 7-14
SMILES: CC(=O)N[C@@H](CO)C(=O)N[C@@H](CC(C)C)C(=O)NCC(=O)N[C@@H](CO)C(=O)N[C@@H](CC(N)=O)C(=O)N[C@@H](CC(C)C)C(=O)N[C@]1(C)CCCCCCC=CCCC[C@@](C)(C(=O)N[C@@H](CCC(=O)O)C(=O)N[C@@H](CC(C)C)C(=O)N[C@@H](CC(N)=O)C(=O)N[C@@H](C)C(=O)N[C@H](C(=O)N[C@@H](CCC(N)=O)C(=O)N[C@@H](Cc2c[nH]cn2)C(N)=O)C(C)C)NC(=O)[C@H](CC(C)C)NC(=O)[C@H](CC(C)C)NC(=O)[C@H](CCCNC(=N)N)NC(=O)[C@H](CC(=O)O)NC(=O)[C@H](CC(C)C)NC(=O)[C@H](CCC(=O)O)NC1=O
B1 gave a Kd [7] of 6.95 µM.

B2: 2014 (peptide)
peptide: Ac-NL[R8]EEDRLL[S5]EEN-NH2
modifications: staple 3-10
SMILES: CC(=O)N[C@@H](CC(N)=O)C(=O)N[C@@H](CC(C)C)C(=O)N[C@]1(C)CCCCCCC=CCCC[C@@](C)(C(=O)N[C@@H](CCC(=O)O)C(=O)N[C@@H](CCC(=O)O)C(=O)N[C@@H](CC(N)=O)C(N)=O)NC(=O)[C@H](CC(C)C)NC(=O)[C@H](CC(C)C)NC(=O)[C@H](CCCNC(=N)N)NC(=O)[C@H](CC(=O)O)NC(=O)[C@H](CCC(=O)O)NC(=O)[C@H](CCC(=O)O)NC1=O
notes: non-active molecule
With B2 the Kd [7] was > 200 µM.

With Ac-[R8]ELDRLL[S5]-NH2 (staple 1-8) [2011] the Kd [7] was > 200 µM.
